From US20250026769A1, “PAPD5 INHIBITORS AND METHODS OF USE THEREOF” (The Children's Medical Center Corporation, priority 2021, published 2025)
Like-named read-outs stand apart in the source and are kept apart here.

Key:
[1] = test system: TERC 3′ ends in human CD19+ cells recovered from mice xenotransplanted with HSPCs; experiment: TERC 3′ end processing in vivo in human CD19+ cells after xenotransplantation into NBSGW mice; design: species or system immunodeficient NBSGW mice with human HSPCs
From the text: (§1) Example 168—Restoration of TERC 3′ end processing in vivo in human blood cells after xenotransplantation into immunodeficient mice. To determine the efficacy of orally administered exemplified compounds in primary human HSPCs and blood cells in restoring TERC processing in vivo, highly-efficient CRISPR-Cas9 ribonucleoprotein transduction was employed to disrupt the PARN gene in primary human CD34+ HSPCs or the control locus AAVS1. These genome-edited human HSPCs were xenotransplanted into immunodeficient NOD,B6.SCID Il2rg−/− KitW4l/W41 (NBSGW) mice, which engraft human HSPCs without exposure to radiation or chemotherapy. Six to ten weeks after xenotransplantation, exemplified compounds were administered for 4 to 7 days alongside controls. Thereafter, human hematopoietic cells were recovered from mouse bone marrow, and engraftment was analyzed by flow cytometry. Engrafted human hematopoietic cells were sorted for lineage markers, and CD19+ cells were used for analysis of restoration of TERC 3′ end processing by RNA-ligation mediated 3′ RACE.

[2] = test system: engraftment of CD45+, CD19+, CD34+ human blood cells; experiment: engraftment of human blood cells in xenotransplanted mice by flow cytometry; assay type: in vivo, immunodeficient NBSGW mice with human HSPCs
From the text: as §1

[3] = test system: hepatitis B surface antigen (HBSAg) from HepG2.2.15 cells, a hepatitis B virus-expressing cell line; experiment: HBsAg ELISA in supernatant of HepG2.2.15 cells; assay type: cell-based; conditions: HepG2.2.15, 96 h
Description: HepG2.2.15 cells, a hepatitis B virus-expressing cell line (Sells, M. A. et al., PNAS, 1987), were plated at 50,000 cells/well in DMEM/F12 media (Gibco) with 10% fetal bovine serum (Omega Scientific) in a 24-well or 96-well plate (Corning), in 2-3 replicates for each test compound/concentration plus controls, and incubated in a humidified 5% CO2 chamber at 37° C. The next day, media was aspirated, cells were washed once with phosphate buffered saline, pH7.4 (Gibco), and 1 mL DMEM/12 media was replaced. Test compounds were added in 3-fold dilutions from up to 100 μM down to 333 pM, with vehicle (dimethylsulfoxide (Sigma)) as a control. After four days of culture in a humidified 5% CO2 chamber at 37° C., plates were spun down in a centrifuge at 300 g for 10 minutes at room temperature. Supernatant from each well was collected and either frozen at −20° C. or used directly for quantitation of hepatitis B surface antigen (HBSAg) in an enzyme-linked immunosorbent assay (ELISA). The supernatant was tested using the HBSAg ELISA kit (Abnova Cat. No KA0286) per the manufacturer's instructions. Results of replicates were averaged and nonlinear curve fitting was used to determine the half maximal inhibitory concentration (IC50) for each test compound.

rPAPD5 = biological target: T1, rPAPD5 (Homo sapiens, UniProt Q8NDF8); experiment: differential scanning fluorimetry (DSF) binding and stabilization of rPAPD5; conditions: for ΔTm at 100 µM: 100 μM test compound, read-out: ΔTm at 100 μM; for ΔTm at 1 µM: read-out: ΔTm at 1 μM
T1 construct: made in house
Procedure, shortened: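 Compound-induced shifts in rPAPD5 melting temperature were determined by thermal shift (DSF). Protein at […] was mixed with a non-extendable ATP analog […] in Tris-HCl (25 mM), MgCl2 (5 mM) and KCl (50 mM), with SYPRO orange at 1:5000. Curves were averages of three measurements analyzed with Thermal Shift software, and ΔTm was referenced to DMSO.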

[4] = test system: TERC 3′ end processing in primary CD34+ human hematopoietic stem and progenitor cells (HSPCs); experiment: TERC 3′ end processing (RACE) in CRISPR/Cas9-engineered PARN-deficient primary CD34+ HSPCs; assay type: cell-based; conditions: for TERC 3′ end processing by RACE at 100 nM: day 5 (FIG. 40B); for TERC 3′ end processing by RACE at 1 μM: day 5 (FIG. 40A)
From the text: Example 167—Restoration of TERC 3′ end processing in primary CD34+ human hematopoietic stem and progenitor cells (HSPCs). To determine the efficacy of exemplified compounds in a disease-relevant stem cell population, we employed a highly-efficient CRISPR-Cas9 ribonucleoprotein transduction strategy to disrupt the PARN gene in primary human CD34+ hematopoietic stem and progenitor cells (HSPCs), or the control locus AAVS1. FIGS. 40A and 40B show extended TERC forms in CRISPR-Cas9 engineered HSPCs deficient in PARN.

[5] = test system: telomere length in DC patient iPSCs; experiment: telomere length / telomere elongation in DC patient iPSCs; assay type: cell-based, human; conditions: Homo sapiens, iPSC, read-out: iPSC-based Telomere length
Description: Compound 266A had activity ˜2-logs higher in the in vitro RNA oligoadenylation assay compared to the parental compound cmpd. 1, approximating the activity of RG7834 (FIG. 7). […] 1. Compounds 295A and 296A had activity 2-3 logs higher in DC patient iPSCs, showing TERC maturation at 1 nM, similar to RG7834 (FIG. 6). […] Referring to Table 1D, “+” refers to activity at 1 μM, “++” refers to activity above 1 nM and below 1 μM, and “+++” refers to activity at <1 nM, “ND” refers to not determined.

[6] = test system: TERC 3′ end processing in DC patient iPSCs; experiment: TERC 3′ end processing by RACE in DC patient / PARN-mutant iPSCs; assay type: cell-based, human; conditions: Homo sapiens, iPSC, read-out: iPSC-based RACE activity
Procedure, shortened: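 Activity binned by concentration giving effect in DC patient iPSCs: "+" at 1 μM, "++" above 1 nM and below 1 μM, "+++" below 1 nM; ND, not determined.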

[7] = patient iPSCs, concentration class at which activity is seen
[8] = 10 μM test compound (Table 2a), read-out: ΔTm at 10 μM
[9] = 10 μM test compound, shift vs DMSO control, read-out: ΔTm (Table 2, starred: the compound was tested at 10 μM)

T1 sequence (Q8NDF8 68-698 isoform Q8NDF8-5 limits assumed): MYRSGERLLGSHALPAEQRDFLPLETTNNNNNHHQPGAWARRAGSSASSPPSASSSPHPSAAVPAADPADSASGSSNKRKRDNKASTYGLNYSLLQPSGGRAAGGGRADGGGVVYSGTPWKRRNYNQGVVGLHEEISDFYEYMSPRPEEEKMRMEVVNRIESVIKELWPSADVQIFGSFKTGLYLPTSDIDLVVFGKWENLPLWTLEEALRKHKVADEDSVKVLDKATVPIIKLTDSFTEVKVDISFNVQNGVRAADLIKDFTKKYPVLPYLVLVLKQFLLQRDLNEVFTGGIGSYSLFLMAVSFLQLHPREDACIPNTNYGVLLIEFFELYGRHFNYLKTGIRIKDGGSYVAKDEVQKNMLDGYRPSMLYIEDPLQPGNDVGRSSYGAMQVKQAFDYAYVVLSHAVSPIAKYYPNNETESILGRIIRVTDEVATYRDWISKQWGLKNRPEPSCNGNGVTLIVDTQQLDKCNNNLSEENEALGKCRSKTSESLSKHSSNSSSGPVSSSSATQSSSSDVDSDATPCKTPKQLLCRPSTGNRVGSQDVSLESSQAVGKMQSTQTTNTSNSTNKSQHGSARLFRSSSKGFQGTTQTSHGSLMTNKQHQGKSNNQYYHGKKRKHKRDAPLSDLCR

Row | Compound | TERC 3′ ends in human CD19+ cells (RACE) ([1]; 32 mg/kg/dose twice daily for 11 doses (FIG. 41D)) | engraftment of CD45+, CD19+, CD34+ human blood cells ([2]; 32 mg/kg/dose twice daily for 11 doses) | IC50 [3] [nM] | ΔTm at 100 µM (rPAPD5; shift vs DMSO control) [°C] | TERC 3′ end processing by RACE at 100 nM [4] | TERC 3′ end processing by RACE at 1 μM [4] | minimal effective concentration [5, 7] [µM] | ΔTm at 1 µM (rPAPD5; 1 μM test compound (Table 2a)) [°C] | ΔTm at 10 µM (rPAPD5; [8]) [°C] | ΔTm at 10 µM (rPAPD5; [9]) [°C] | minimal effective concentration [6, 7] [µM] | TERC 3′ ends in human CD19+ cells (RACE) ([1]; 32 mg/kg/dose every other day for 4 days (FIG. 41B)) | aberrant TERC oligo-adenylation in xenotransplanted PARN-deficient human blood cells ([1]; oral, 32 mg/kg/dose every other day for 4 days, RACE amplicon sequencing) | engraftment of CD45+, CD19+, CD34+ human blood cells ([2]; 32 mg/kg/dose every other day for 4 days) | minimal effective concentration [5] [µM] | ΔTm at 10 µM (rPAPD5; read-out: ΔTm (Table 2, starred: the compound was tested at 10 μM)) [°C] | ΔTm at 1 µM (rPAPD5) [°C] | ΔTm at 10 µM (rPAPD5; read-out: ΔTm at 10 μM) [°C] | minimal effective concentration [6] [µM]
1 | O=C(O)c1cc(Cl)ccc1Nc1c(C2=CCOCC2)cnc2ccc(Cl)cc12 [Compound 297A, 5-chloro-2-[[6-chloro-3-(3,6-dihydro-2H-pyran-4-yl)-4-quinolyl]amino]benzoic acid] | maturation of TERC 3′ ends | no change in engraftment | 42 | > 5 |  |  |  |  |  |  |  |  |  |  |  |  |  |  | 
2 | O=C(O)c1cc(Cl)ccc1Nc1c(N2CCC(F)(F)CC2)cnc2ccc(Cl)cc12 [Compound 340A, 5-chloro-2-[[6-chloro-3-(4,4-difluoro-1-piperidyl)-4-quinolyl]amino]benzoic acid] |  |  | 50 |  | maturation of TERC 3′ end processing | maturation of TERC 3′ end processing | < 0.001 | > 5 | > 5 | > 5 | < 0.001 |  |  |  |  |  |  |  | 
3 | O=C(O)c1cc(Cl)ccc1Nc1c(C2=CCC(F)(F)CC2)cnc2ccc(Cl)cc12 [Compound 344A, 5-chloro-2-[[6-chloro-3-(4,4-difluorocyclohexen-1-yl)-4-quinolyl]amino]benzoic acid] |  |  | 600 |  |  |  | < 0.001 | > 5 | > 5 | > 5 | < 0.001 | maturation of TERC 3′ ends | significantly reversed | no change in engraftment |  |  |  |  | 
4 | O=C(O)c1cc(Cl)ccc1Nc1c(CN2CCOCC2)cnc2ccc(Cl)cc12 [Compound 371A, 5-chloro-2-[[6-chloro-3-(morpholinomethyl)-4-quinolyl]amino]benzoic acid] |  |  | 145 | > 5 | maturation of TERC 3′ end processing | maturation of TERC 3′ end processing | < 0.001 | > 5 | > 5 |  | 0.001 to 1 |  |  |  |  |  |  |  | 
5 | O=C(O)c1cc(Cl)ccc1Nc1c(N2CCC(Cl)CC2)cnc2ccc(Cl)cc12 [Compound 393A, 5-chloro-2-((6-chloro-3-(4-chloropiperidin-1-yl)quinolin-4-yl)amino)benzoic acid] |  |  | 282 |  | maturation of TERC 3′ end processing |  | < 0.001 | > 5 | > 5 | > 5 | < 0.001 |  |  |  |  |  |  |  | 
6 | O=C(O)c1cc(Cl)ccc1Nc1c(C2CCC(=NO)CC2)cnc2ccc(Cl)cc12 (centres unmarked) [Compound 396A, 5-chloro-2-[[6-chloro-3-(4-hydroxyiminocyclohexyl)-4-quinolyl]amino]benzoic acid] |  |  |  | > 5 | maturation of TERC 3′ end processing | maturation of TERC 3′ end processing | < 0.001 | < 1 | > 5 |  | < 0.001 |  |  |  |  |  |  |  | 
7 | O=C1CCC(c2cnc3ccc(Cl)cc3c2Nc2ccc(Cl)cc2C(=O)O)CC1 [Compound 404A, 5-chloro-2-[[6-chloro-3-(4-oxocyclohexyl)-4-quinolyl]amino]benzoic acid] |  |  | 35 |  | maturation of TERC 3′ end processing |  | < 0.001 | > 5 | > 5 | > 5 | < 0.001 |  |  |  |  |  |  |  | 
8 | Cc1cc(Cl)cc2c(Nc3ccc(Cl)cc3C(=O)O)c(S(=O)(=O)N3CCSCC3)cnc12 [Compound 417A, 5-chloro-2-[(6-chloro-8-methyl-3-thiomorpholinosulfonyl-4-quinolyl)amino]benzoic acid] |  |  | 71 |  |  | maturation of TERC 3′ end processing |  |  |  |  |  |  |  |  | < 0.001 | > 5 | > 5 | > 5 | < 0.001
9 | O=C(O)c1cc(Cl)ccc1Nc1c(S(=O)(=O)N2CCSCC2)cnc2c(Cl)cc(Cl)cc12 [Compound 420A, 5-chloro-2-[(6,8-dichloro-3-thiomorpholinosulfonyl-4-quinolyl)amino]benzoic acid] |  |  | 100 |  |  | maturation of TERC 3′ end processing | < 0.001 | > 5 | > 5 | > 5 | < 0.001 |  |  |  |  |  |  |  | 
10 | O=C(O)c1cc(Cl)ccc1Nc1c(S(=O)(=O)N2CCSCC2)cnc2c(F)cc(Cl)cc12 [Compound 421A, 5-chloro-2-[(6-chloro-8-fluoro-3-thiomorpholinosulfonyl-4-quinolyl)amino]benzoic acid] |  |  |  | > 5 |  | maturation of TERC 3′ end processing | < 0.001 | > 5 | > 5 |  | < 0.001 |  |  |  |  |  |  |  | 
11 | O=C(O)c1cc(Cl)ccc1Nc1c(CN2CCSCC2)cnc2ccc(Cl)cc12 [Compound 428A, 5-chloro-2-[[6-chloro-3-(thiomorpholinomethyl)-4-quinolyl]amino]benzoic acid] |  |  | 22 | > 5 |  | maturation of TERC 3′ end processing | < 0.001 | > 5 | > 5 |  | < 0.001 |  |  |  |  |  |  |  | 
